Measured values published in patent EP4813463A2, “TYK2 INHIBITORS AND COMPOSITIONS AND METHODS THEREOF” (Lynk Pharmaceuticals Co. Ltd., priority 2023, dated 2024).
In brackets after ≈: the same amount, converted by molar mass. Read-outs that look alike come from different tables or passages of the source.

Key:
[1] = test system: Ba/F3-FL-TYK2-P760L cells; assay: Anti-proliferative assay in engineered Ba/F3 cells (Cell-Titer Glo, 72 h); format: cell-based; settings: 72 h compound treatment, concentration that causes 50% growth inhibition, read-out: Baf3-FL-T2P760L
How it was run: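 IC50 from luminescent ATP viability after 72 h compound exposure (37 °C, 5% CO2), % inhibition normalised to DMSO-treated cells minus medium blank. IL-3-free Ba/F3-FL-TYK2-P760L (Tel-JAK fusion) cells in 10% FBS RPMI-1640 received 9 three-fold doses, top 20 µM, 0.1% DMSO.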

TYK2-JH2 domain = biological target: T1, TYK2-JH2 domain (Homo sapiens, UniProt P29597); assay: Binding activity test for JH2 domain of TYK2 (Tb-antibody/tracer FRET); settings: for IC50: JH2 domain enzyme, 60 min at 25°C, then 4°C overnight, read-out: TYK2 JH2 Binding IC50; for JAK1/TYK2 selectivity: ratio of JAK1 JH2 to TYK2 JH2 binding IC50
T1 construct: JAK1-JH2 domain or TYK2-JH2 domain enzyme in assay buffer
T1 sequence (P29597 589-875 limits assumed): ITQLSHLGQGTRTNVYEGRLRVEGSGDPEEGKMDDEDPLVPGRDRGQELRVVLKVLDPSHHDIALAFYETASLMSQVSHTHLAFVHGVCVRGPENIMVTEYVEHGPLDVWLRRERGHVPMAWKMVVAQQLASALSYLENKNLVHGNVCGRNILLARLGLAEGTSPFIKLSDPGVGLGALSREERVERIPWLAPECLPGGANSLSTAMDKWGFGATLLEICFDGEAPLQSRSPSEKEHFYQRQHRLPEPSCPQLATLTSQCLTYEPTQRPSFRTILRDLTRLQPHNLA
How it was run: (§1)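 IC50 values (nM) come from TR-FRET readings taken after a 25°C incubation followed by overnight at 4°C. Each well held JH2 domain protein, Tb-antibody, tracer and test compound titrated in 11 threefold steps, with DMSO high and low controls.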

JAK1-JH2 domain = biological target: T2, JAK1-JH2 domain (Homo sapiens, UniProt P23458); assay: Binding activity test for JH2 domain of JAK1 (Tb-antibody/tracer FRET); settings: JH2 domain enzyme; 60 min at 25°C, then 4°C overnight; read-out: JAK1 JH2 Binding IC50
T2 construct: JAK1-JH2 domain or TYK2-JH2 domain enzyme in assay buffer
T2 sequence (P23458 583-855 limits assumed): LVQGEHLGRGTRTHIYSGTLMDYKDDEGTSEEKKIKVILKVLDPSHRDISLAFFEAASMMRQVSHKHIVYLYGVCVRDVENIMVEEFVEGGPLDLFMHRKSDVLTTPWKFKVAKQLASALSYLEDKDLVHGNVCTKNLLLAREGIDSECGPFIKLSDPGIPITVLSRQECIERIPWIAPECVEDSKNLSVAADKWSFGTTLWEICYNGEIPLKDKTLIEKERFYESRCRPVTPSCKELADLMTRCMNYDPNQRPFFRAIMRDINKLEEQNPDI
How it was run: as §1

[2] = Brain pharmacokinetic studies in rats; format: in vivo, Sprague-Dawley rats
Protocol: Pharmacokinetic profiles of test articles were evaluated in fasted Sprague-Dawley rats. Different kinds of formulations were designed to ensure test articles fully dissolved and wouldn't precipitate in 1:10 SGF or FaSSIF dilution. Typically, Rats were dosed with 3 mg/kg and 5 mg/kg by intravenous injection and oral gavage, respectively. The animal was restrained manually at the designated time points, approximately 150 µL of blood sample was collected via jugular vein for serial bleeding into K2EDTA tubes. The blood samples were maintained in wet ice first and centrifuged to obtain plasma (2000g, 4°C, 5 min) within 30 minutes post sampling. Anesthetizing the rat with the Isoflurane vaporizer to 2%~3% and place its back on the operation table. Spread the animal limbs and pin the limbs on the operation table. Make a cut along the sternum about 4cm long, low enough to expose the sternum's end. Expose the heart and use a 25-gauge needle connected with a 20 mL syringe filled with 20 mL of cold saline to pierce the left ventricle. Maintain the placement of the needle, and slowly push the syringe plunger to wash the brain with saline. The perfusion will be finished within about 2 min and then take the brain out of the body carefully without damaging the tissue. Dry the tissue on filtrate paper, which should be placed on ice, and then weigh the brain tissue and store at -70 °C and analyzed by LC/MS/MS for quantification. PK parameter values, including, but not necessarily limited to, the maximum plasma concentrations (Cmax), and the area under the plasma concentration vs. time curve (AUC) from time zero to 24-hour (AUC0-24h) were determined using WinNonlin program. Table 13. Systemic Pharmacokinetic Parameters in Sprague-Dawley Rats

TYK2 pathway = assay: IFN-γ release in NK92 cells stimulated by IL-12 (ELISA); format: cell-based; settings: IL-12 2.5ng/mL stimulation 15hrs, IFN-γ in supernatant by ELISA
Protocol: IFN-γ Release in NK92 Cells Stimulated by IL-12
Purpose: To evaluate the inhibition activity of TYK2 inhibitors in NK92 cells on TYK2 pathway through ELISA method.
Procedure: 1) Seeding NK92 cells into 96-well plate, cell density is 1.5E5 cells/well, 100uL/well; 2)Add prepared test articles into indicated wells, 50uL/well, and continue incubate for 1h, at 37°C; 3) After compound treatment, add 50uL/well IL-12 into indicated wells, final concentration of IL-12 is 2.5ng/mL; 4)Incubate cytokine stimulated cells at 37°C for another 15hrs in CO2 incubator; 5) After cytokine stimulation, transfer culture supernatant into a new plate and centrifuge for 5min at 350x g, and detect IFN-γ concentration in the supernatant with ELISA kit; 6) Data analysis with GrapdPad Prism6.0 software. Table 5. IC50 Values of Exemplary Compounds on TYK2 Pathway

Kinetic solubility = format: physicochemical; settings: phosphate buffer, pH 7.4, aqueous buffer, kinetic from dmso stock, 100 mM pH 7.4 phosphate buffer, 1% DMSO, room temperature, read-out: Kinetics Solubility_PBS7.4
Protocol: Aliquots of 8 µL of reference and test compound stock solutions (10 mM/5 mM) are added into 792 µL of 100 mM pH 7.4 phosphate buffer. The final DMSO concentration is 1%. Sample tubes are shaken for 2 hours at 1000 rpm at room temperature. Samples are centrifuged at 12000 rpm for 10 min to precipitate un-dissolved particles. And transfer the supernatants to a new tube or plate. Add 5 µL of samples (no diluted, 10 times diluted, and 100 times diluted) and standard curve samples to 95 µL of ACN containing IS for LC-MS/MS analysis. Kinetic Solubilities Values of Exemplary Compounds

pSTAT1 = assay: Phosphorylation inhibition of STAT in human whole blood (IFN-alpha stimulated, flow cytometry); format: cell-based; settings: T-cell, 20 min, IFN-alpha stimulation 20 mins, CD3 T cells, read-out: pSTAT1 inhibition in hWB (IC50)
How it was run: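 Fresh human whole blood stimulated 20 min with human universal type I IFN-alpha, then fixed, permeabilised and stained for CD3 and pSTAT1 (Y701). pSTAT1 in T cells read by flow cytometry; IC50 from 4-parameter logistic fit.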

[3] = Microsomal metabolic stability assay; format: in vitro ADME; settings: human, liver microsomes, pH 7.4, 0.5 mg/mL microsomal protein, 1 µM test article, 2 mM NADPH; for microsomal CLint at 1 µM: read-out: Human LM Clint; for half-life at 1 µM: read-out: Human LM T1/2
How it was run: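 Test or control compound (1 µM) incubated with microsomes (0.5 mg/mL protein) in 100 mM potassium phosphate pH 7.4, 1.0 mM EDTA at 37°C, started with NADPH regenerating system (2 mM NADPH). Sampled at 0, 5, 15, 30, 45 min, acetonitrile-quenched, LC/MS/MS. T1/2 from ln %remaining vs time slope; CLint = 0.693/T1/2 per mg protein/mL.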

Caco-2 cell permeability = format: in vitro ADME; settings: human, Caco-2, 10.0 µM, no p-gp inhibitor; for Papp A→B at 90 min, 10 µM: A to B; for Papp B→A at 90 min, 10 µM: B to A; for efflux ratio at 90 min, 10 µM: read-out: Efflux Ratio: Papp(B-A)/Papp(A-B)
Protocol: Compounds permeability was evaluated using Caco-2 cell lines. HBSS buffer was used as transfer buffer. Appropriate dosing and receiver solutions were applied to the donor and receiver chambers to initiate the transport assay in apical to basolateral (A to B) or basolateral to apical (B to A) directions. Compounds were tested at 10.0 µM in the absence of p-gp inhibitor bidirectionally in duplicates. After incubation at 37°C for 90 mins, donor and receiver samples were analyzed by LC-MS/MS. The intestinal absorption potential was assessed using Papp value and efflux ratio.

| Compound | IC50 ([1]; Mus musculus, BaF3, 72 h) [nM] | IC50 (TYK2-JH2 domain) [nM] | JAK1/TYK2 selectivity (TYK2-JH2 domain) | IC50 (JAK1-JH2 domain) [nM] | half-life ([2]; Sprague-Dawley, rat, brain, rats, iv, 3 mg/kg, solution) [h] | Kp ([2]; Sprague-Dawley, rat, brain, rats, iv, 3 mg/kg, solution, read-out: Brain AUC/Systemic AUC) | half-life ([2]; Sprague-Dawley, rat, systemic (plasma), rats, iv, 3 mg/kg, solution) [h] | AUC ([2]; Sprague-Dawley, rat, systemic (plasma), rats, iv, 3 mg/kg, solution, read-out: AUC) [ng·h/mL] | AUC ([2]; brain, rats, iv, 3 mg/kg, solution) [ng·h/g] | brain exposure in Rats ([2]; result in words) | IC50 (TYK2 pathway) [nM] | IC50 [1] [nM] | solubility kinetic at 2 h (Kinetic solubility) [µM] | IC50 (pSTAT1) [nM] | microsomal CLint at 1 µM [3] [µL/min/mg] | half-life at 1 µM [3] [h] | Papp A→B at 90 min, 10 µM (Caco-2 cell permeability) [×10⁻⁶ cm/s] | Papp B→A at 90 min, 10 µM (Caco-2 cell permeability) [×10⁻⁶ cm/s] | efflux ratio at 90 min, 10 µM (Caco-2 cell permeability) |
| --- | --- | --- | --- | --- | --- | --- | --- | --- | --- | --- | --- | --- | --- | --- | --- | --- | --- | --- | --- |
| COC(=O)c1cnc(NC(=O)C2CC2)cc1Nc1cnn2ccc([C@H](O)C(F)(F)F)c(OC)c12 [Example 26, Methyl (5)-6-(cyclopropanecarboxamido)-4-((4-methoxy-5-(2,2,2-trifluoro-1-hydroxyethyl)pyrazolo[1,5-a]pyridin-3-yl)amino)nicotinate] | 35.2 | 0.183 | 338.1 | 61.9 | 1.99 | 0.11 | 1.53 | 1290 | 140 | good brain exposure | 17.6 | – | – | – | – | – | – | – | – |
| [2H]C([2H])([2H])NC(=O)c1cnc(NC(=O)[C@@H]2C[C@@H]2F)cc1Nc1cnn2ccc(C(O)C(F)(F)F)c(OC)c12 (single isomer, unassigned) [Example 15A, 6-((1S,2S)-2-fluorocyclopropane-1-carboxamido)-4-((4-methoxy-5-((S*)-2,2,2-trifluoro-1-hydroxyethyl)pyrazolo[1,5-a]pyridin-3-yl)amino)-N-(methyl-d3)nicotinamide] | – | 0.078 | 160.8 | 12.5 | – | – | – | – | – | – | 15.7 | 10.6 | 23.9 (≈ 11.9 µg/mL) | 34.8 | 11.9 | 1.94 | – | – | – |
| CCC(=O)c1cnc(NC(=O)C2CC2)cc1Nc1ccc2cn[nH]c2c1OC [Example 196, N-(4-((7-Methoxy-1H-indazol-6-yl)amino)-5-propionylpyridin-2-yl)cyclopropanecarboxamide, reference compound] | – | 3.93 | 8.04 | 31.6 | – | – | – | – | – | – | 923 | – | – | > 10000 | – | – | – | – | – |
| CNC(=O)c1cnc(NC(=O)C2CC2)cc1Nc1nn(C)c2cccc(OC)c12 [Example 100, 6-(Cyclopropanecarboxamido)-4-((4-methoxy-1-methyl-1H-indazol-3-yl)amino)-N-methylnicotinamide] | 505 | 0.97 | 116.4 | 113 | – | – | – | – | – | – | 86.8 | – | – | – | – | – | – | – | – |
| [2H]C([2H])([2H])NC(=O)c1cnc(NC(=O)C2CC2)cc1Nc1cnn2ccc(C(C)O)c(OC)c12 (centres unmarked) [Example 23, 6-(Cyclopropanecarboxamido)-4-((5-(1-hydroxyethyl)-4-methoxypyrazolo[1,5-a]pyridin-3-yl)amino)-N-(methyl-d3)nicotinamide] | 166 | 0.185 | 72.7 | 13.5 | – | – | – | – | – | – | – | – | – | – | 0.17 | 132 | 0.46 | 37.6 | 82.7 |
| [2H]C([2H])([2H])NC(=O)c1cnc(NC(=O)C2CC2)nc1Nc1cnn2ccc([C@H](O)C(F)(F)F)c(OC)c12 [Example 33, (S)-2-(cyclopropanecarboxamido)-4-((4-methoxy-5-(2,2,2-trifluoro-1-hydroxyethyl)pyrazolo[1,5-a]pyridin-3-yl)amino)-N-(methyl-d3)pyrimidine-5-carboxamide] | 16 | 0.082 | 418.3 | 34.3 | – | – | – | – | – | – | – | – | 59.4 (≈ 28.6 µg/mL) | – | – | – | 0.39 | 46.5 | 121 |
| CCC(=O)c1cnc(NC(=O)C2CC2)cc1Nc1ccn2nccc2c1OC [Example 195, N-[4-[(4-Methoxypyrazolo[1,5-a]pyridin-5-yl)amino]-5-propanoyl-2-pyridyl]cyclopropanecarboxamide, reference compound] | 329 | 2.96 | 22.68 | 67.1 | – | – | – | – | – | – | 1500 | – | – | > 5000 | – | – | – | – | – |
| CCC(=O)c1cnc(NC(=O)C2CC2)cc1Nc1ccc2[nH]cnc2c1OC [Example 197, N-[4-[(4-Methoxy-1H-benzimidazol-5-yl)amino]-5-propanoyl-2-pyridyl] cyclopropanecarboxamide, reference compound] | 426 | 2.72 | 6.41 | 17.4 | – | – | – | – | – | – | 515 | – | – | – | – | – | – | – | – |
| [2H]C([2H])([2H])NC(=O)c1cnc(NC(=O)C2CC2)cc1Nc1cnn2ccc([C@H](OC(C)=O)C(F)(F)F)c(OC)c12 [Example 43, (S)-1-(3-((2-(cyclopropanecarboxamido)-5-((methyl-d3)carbamoyl)pyridin-4-yl)amino)-4-methoxypyrazolo[1,5-a]pyridin-5-yl)-2,2,2-trifluoroethyl acetate] | 20.6 | 0.175 | 407.2 | 71.3 | – | – | – | – | – | – | 22.6 | – | 33.3 | 174 | – | – | – | – | – |
